Laboratory results as given in patent US20080090859A1, “Use of Selective Opiate Receptor Modulators In the Treatment Of Neuropathy” (TIOGA PHARMACEUTICALS, INC., priority 2003, published 2008).

Assays:
[1] = system: streptozotocin diabetic rats (tactile allodynia); assay: Tactile allodynia (Von Frey filaments) in streptozotocin diabetic rats; type: in vivo, rat
Description: A) Insulin deficient diabetes was induced in rats by a single injection of streptozotocin (50 mg/kg, intraperitoneally). After having confirmed the development of diabetes by established hyperglycemia, determined in blood samples taken from the rats, asimadoline was administered subcutaneously at doses of 1 mg/kg, 5 mg/kg and 15 mg/kg. For comparison, gabapentin, the most recent treatment for diabetic neuropathy, at 50 mg/kg was included. To determine mechanical threshold (tactile allodynia) for foot withdrawal, a series of Von Frey filaments (minimum 0.25 g; maximum 15 g) was applied in sequence to the plantar surface of the right hindpaw with a pressure that causes the filament to buckle, starting with a filament of a buckling weight of 2 g. Absence of a response after 5 seconds was regarded a negative response, and the next heavier filament was applied. Lifting of the paw was recorded as a positive response, and the next lightest filament were applied. This sequence was continued until four measurements have been made after an initial change in the behavior or until five consecutive negative (given the score of 15 g) or four positive (score of 0.25 g) scores were obtained. The resulting sequence of positive and negative scores was used to determine the 50% response threshold.
That the beneficial effects are indeed due to the opioid mechanism of asimadoline can also be seen in Table 1.

[2] = system: L5/L6 spinal nerve ligated rats (tactile allodynia); assay: Tactile allodynia (Von Frey filaments) in rats with L5 and L6 spinal nerve ligation; type: in vivo, rat
Description: B) Neuropathic pain was induced by surgical […], i.e. the L5 and L6 spinal nerves on one side were tightly ligated in anesthetized rats. After 15 days of recovery, a series of Von Frey filaments (0.4- 15 g) was applied in sequence to the plantar surface of the ligated hind paw to determine the 50% mechanical threshold for foot withdrawal as described before.

[3] = system: capsaicin-treated monkey tail (thermal allodynia); assay: Capsaicin-induced thermal allodynia, tail withdrawal latency in monkey model; type: in vivo; settings: 45 min after administration; for Tail Withdrawal Latency Mean ± SEM: capsaicin, cut-off 20 sec
Description: C) Because neuropatic pain is characterized by allodynia for various sensory modalities, also thermal allodynia was investigated in a monkey model where allodynia was induced by the topical application of […] of capsaicin to the surface of the tail. Allodynia was assessed by the latency for withdrawal of the tail following immersion of the tail into water with non-noxious temperatures of either 38° C. or 42° C. (cut-off latency of 20 sec).

## NCC1(CC(=O)O)CCCCC1 [Gabapentin, reference compound]
[1]; diabetic rats, 50 mg/kg s.c.
  50% Response Threshold Mean ± SEM: 10 ± 1.9 g
[2]; 100 mg/kg p.o.
  50% Response Threshold Mean ± SEM: 12.8 ± 1.6 g

## CN(C(=O)C(c1ccccc1)c1ccccc1)[C@H](CN1CC[C@H](O)C1)c1ccccc1.Cl [Asimadoline, N-methyl-N-[(1S)-1-phenyl-2-((3S)-3-hydroxypyrrolidin-1-yl)ethyl]-2,2-diphenylacetamide, hydrochloride]
[1]; diabetic rats, 1 mg/kg s.c., 3 h after administration
  50% Response Threshold Mean ± SEM: 2 ± 0.2 g
[1]; diabetic rats, 5 mg/kg s.c., 3 h after administration
  50% Response Threshold Mean ± SEM: 6 ± 2.0 g
[1]; diabetic rats, 15 mg/kg s.c., 3 h after administration
  50% Response Threshold Mean ± SEM: 9 ± 1.7 g
[1]; diabetic rats, highest dose (15 mg/kg s.c.), 3 h after administration
  effect on tactile allodynia (in words): nearly completely abolished tactile allodynia
[1]; diabetic rats, highest dose of asimadoline + nor-BNI i.pl.
  anti-allodynic effect after intraplantar injection of kappa antagonist nor-BNI (in words): completely abolished
[1]; diabetic rats, nor-BNI 100 μg i.pl. + Asimadoline 15 mg/kg s.c.
  50% Response Threshold Mean ± SEM: 3 ± 1.0 g
[2]; 1 mg/kg p.o., 2 h after administration
  50% Response Threshold Mean ± SEM: 6.4 ± 0.5 g
[2]; 3 mg/kg p.o., 2 h after administration
  50% Response Threshold Mean ± SEM: 10.1 ± 0.6 g
[2]; 10 mg/kg p.o., 2 h after administration
  50% Response Threshold Mean ± SEM: 12.0 ± 0.4 g
[2]; highest dose (10 mg/kg p.o.), 2 h after administration
  effect on tactile allodynia (in words): nearly completely abolished tactile allodynia
[3]; 0.01 mg/kg s.c., water 38° C.
  Tail Withdrawal Latency Mean ± SEM: 8.0 ± 4.5 s
[3]; 0.01 mg/kg s.c., water 42° C.
  Tail Withdrawal Latency Mean ± SEM: 4.5 ± 2.5 s
[3]; 0.032 mg/kg s.c., water 38° C.
  Tail Withdrawal Latency Mean ± SEM: 19.6 ± 0.4 s
[3]; 0.032 mg/kg s.c., water 42° C.
  Tail Withdrawal Latency Mean ± SEM: 12.8 ± 4.2 s
[3]; highest dose (0.032 mg/kg s.c.), 38° C. condition
  effect on thermal allodynia (in words): nearly completely abolished thermal allodynia

## Oc1ccc2c3c1O[C@H]1c4[nH]c5c(c4C[C@@]4(O)[C@@H](C2)N(CC2CC2)CC[C@]314)C[C@@]1(O)[C@H]2Cc3ccc(O)c4c3[C@@]1(CCN2CC1CC1)[C@H]5O4 [nor-BNI, nor-binaltorphimine, reference compound]
[1]; non-diabetic control rats, nor-BNI 100 μg i.pl.
  50% Response Threshold Mean ± SEM: 13 ± 1.6 g
